According to PubChem BioAssay AID248 (DTP/NCI, 2004):
Values joined by “and” are separate entries in the source; they are usually repeats but may differ in a detail not shown here. Equal values may be shown once. Toxic doses and inconclusive results are not listed. No stated cut-off is given here; in the data, active means T/C of 150% or more; inactive means T/C below 125%.

Test system: L1210 leukemia ip in BDF1 mice, survival T/C
Assay: NCI In Vivo Anticancer Drug Screen. Data for tumor model L1210 Leukemia (intraperitoneal) in B6D2F1 (BDF1) mice
Details: endpoint: mean survival time, higher = longer survival
Summary of the method: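 Mice bearing the transplanted tumor received compound or vehicle. Survival of the treated group was divided by that of the vehicle-treated control group to give the ratio.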

[1] = dose: 100.0 mg/kg/injection, schedule: Q01DX009 (ip), vehicle: Klucel (hydroxypropylcellulose) (HPC)
[2] = dose: 100.0 mg/kg/injection, schedule: Q04DX002 (ip), vehicle: Klucel (hydroxypropylcellulose) (HPC)
[3] = dose: 200.0 mg/kg/injection, schedule: Q01DX009 (ip), vehicle: Klucel (hydroxypropylcellulose) (HPC)
[4] = dose: 200.0 mg/kg/injection, schedule: Q04DX002 (ip), vehicle: Klucel (hydroxypropylcellulose) (HPC)
[5] = dose: 100.0 mg/kg/injection, schedule: Q01DX001 (ip), vehicle: saline
[6] = dose: 25.0 mg/kg/injection, schedule: Q01DX009 (ip), vehicle: saline
[7] = dose: 50.0 mg/kg/injection, schedule: Q01DX009 (ip), vehicle: saline
[8] = dose: 100.0 mg/kg/injection, schedule: Q01DX009 (ip), vehicle: saline
[9] = dose: 200.0 mg/kg/injection, schedule: Q01DX009 (ip), vehicle: saline
[10] = dose: 400.0 mg/kg/injection, schedule: Q01DX009 (ip), vehicle: saline
[11] = dose: 100.0 mg/kg/injection, schedule: Q04DX003 (ip), vehicle: saline
[12] = dose: 12.5 mg/kg/injection, schedule: Q01DX009 (ip), vehicle: saline with Tween-80
[13] = dose: 25.0 mg/kg/injection, schedule: Q04DX003 (ip), vehicle: saline with Tween-80
[14] = dose: 100.0 mg/kg/injection, schedule: Q01DX001 (ip), vehicle: saline with Tween-80
[15] = dose: 100.0 mg/kg/injection, schedule: Q04DX003 (ip), vehicle: saline with Tween-80
[16] = dose: 200.0 mg/kg/injection, schedule: Q04DX003 (ip), vehicle: saline with Tween-80
[17] = dose: 400.0 mg/kg/injection, schedule: Q04DX003 (ip), vehicle: saline with Tween-80
[18] = dose: 200.0 mg/kg/injection, schedule: Q04DX003 (ip), vehicle: saline
[19] = dose: 400.0 mg/kg/injection, schedule: Q04DX003 (ip), vehicle: saline
[20] = dose: 200.0 mg/kg/injection, schedule: Q01DX001 (ip), vehicle: saline
[21] = dose: 400.0 mg/kg/injection, schedule: Q01DX001 (ip), vehicle: saline

Measured: T/C

COc1ccc2c(n1)Sc1c(Cl)nc(Cl)nc1N2
inactive: dose: 100.0 mg/kg/injection, schedule: Q01DX001 (ip), vehicle: Klucel (hydroxypropylcellulose) (HPC) 95 % of control | dose: 200.0 mg/kg/injection, schedule: Q01DX001 (ip), vehicle: Klucel (hydroxypropylcellulose) (HPC) 93 % of control | dose: 400.0 mg/kg/injection, schedule: Q01DX001 (ip), vehicle: Klucel (hydroxypropylcellulose) (HPC) 98 % of control

CCCCNC(=S)NCCCC
inactive: [1] 92 % of control | [2] 98 % of control | [3] 98 % of control | [4] 104 % of control

CSc1cccc(NC(=S)NC(=O)c2ccccc2)c1
inactive: dose: 25.0 mg/kg/injection, schedule: Q01DX009 (ip), vehicle: Klucel (hydroxypropylcellulose) (HPC) 96 % of control | dose: 50.0 mg/kg/injection, schedule: Q01DX009 (ip), vehicle: Klucel (hydroxypropylcellulose) (HPC) 94 % of control | [1] 91 % of control

O=S1(=O)N=C(Sc2ccccc2)c2ccccc21
inactive: dose: 100.0 mg/kg/injection, schedule: Q04DX002 (ip), vehicle: saline with Tween-80 102 % of control | dose: 200.0 mg/kg/injection, schedule: Q04DX002 (ip), vehicle: saline with Tween-80 98 % of control | dose: 400.0 mg/kg/injection, schedule: Q04DX002 (ip), vehicle: saline with Tween-80 98 % of control

CC1(C)N=C(N)N=C(N)N1c1cccc(CCCCc2c(Cl)cccc2Cl)c1
inactive: dose: 25.0 mg/kg/injection, schedule: Q01DX001 (ip), vehicle: saline 105 % of control | dose: 50.0 mg/kg/injection, schedule: Q01DX001 (ip), vehicle: saline 86 % of control | [5] 95 % of control

CC(=O)Oc1ccc([N+](=O)[O-])cc1OC(C)=O
inactive: dose: 75.0 mg/kg/injection, schedule: Q01DX001 (ip), vehicle: water 92 % of control | dose: 150.0 mg/kg/injection, schedule: Q01DX001 (ip), vehicle: water 92 % of control | dose: 300.0 mg/kg/injection, schedule: Q01DX001 (ip), vehicle: water 95 % of control

C/C(=C\CN1C(=O)c2ccccc2C1=O)CCC(=O)O
inactive: [6] 109 % of control | [7] 101 % of control | [8] 109 % of control | [9] 111 % of control | [10] 106 % of control

c1ccc2c(c1)CC1CCCCN1C2 (centres undefined)
inactive: dose: 12.5 mg/kg/injection, schedule: Q01DX001 (ip), vehicle: Klucel (hydroxypropylcellulose) (HPC) 93 % of control | dose: 25.0 mg/kg/injection, schedule: Q01DX001 (ip), vehicle: Klucel (hydroxypropylcellulose) (HPC) 98 % of control | [6] 96 % of control | dose: 50.0 mg/kg/injection, schedule: Q01DX001 (ip), vehicle: Klucel (hydroxypropylcellulose) (HPC) 93 % of control | [7] 106 % of control | [11] 88 % of control

OC(CN1CCCCC1)c1ccc(/C=C/c2ccc(Cl)cc2)cc1 (centres undefined)
inactive: dose: 6.25 mg/kg/injection, schedule: Q01DX009 (ip), vehicle: saline with Tween-80 101 % of control | dose: 6.25 mg/kg/injection, schedule: Q04DX003 (ip), vehicle: saline with Tween-80 93 % of control | [12] 93 % of control | dose: 12.5 mg/kg/injection, schedule: Q04DX003 (ip), vehicle: saline with Tween-80 88 % of control | [13] 98 % of control and 87 % of control | [14] 88 % of control

COc1cc(/C=N\NC(=O)c2ccncc2)ccc1O
inactive: [15] 100 % of control | [16] 97 % of control | [17] 103 % of control

CC(=O)CC(=O)NCCNC(=O)CC(C)=O
inactive: [11] 101 % of control | [18] 100 % of control | [19] 100 % of control

C=CCC(O)CCCCC (centres undefined)
inactive: dose: 50.0 mg/kg/injection, schedule: Q01DX001 (ip), vehicle: carboxymethylcellulose (CMC) 101 % of control | dose: 100.0 mg/kg/injection, schedule: Q01DX001 (ip), vehicle: carboxymethylcellulose (CMC) 92 % of control | dose: 200.0 mg/kg/injection, schedule: Q01DX001 (ip), vehicle: carboxymethylcellulose (CMC) 97 % of control | dose: 400.0 mg/kg/injection, schedule: Q01DX001 (ip), vehicle: carboxymethylcellulose (CMC) 106 % of control

O=[N+]([O-])c1ccc(N2N=NC3CC/C(=C\c4cccs4)C32N2CCOCC2)cc1 (centres undefined)
inactive: [2] 93 % of control | [4] 101 % of control | dose: 400.0 mg/kg/injection, schedule: Q04DX002 (ip), vehicle: Klucel (hydroxypropylcellulose) (HPC) 90 % of control

Cc1ccc(C(=O)CCC(=O)O)c(C)c1
inactive: [15] 100 % of control | [16] 98 % of control | [17] 98 % of control

Cc1ccc(N=Cc2cc(Cl)ccc2O)cc1.Cc1ccc(N=Cc2cc(Cl)ccc2O)cc1.[Co]
inactive: [13] 94 % of control | [15] 116 % of control and 91 % of control

CCCN(CCC)C(=O)SCC
inactive: [14] 101 % of control | [15] 101 % of control and 105 % of control | dose: 200.0 mg/kg/injection, schedule: Q01DX001 (ip), vehicle: saline with Tween-80 97 % of control | [16] 100 % of control and 101 % of control | dose: 400.0 mg/kg/injection, schedule: Q01DX001 (ip), vehicle: saline with Tween-80 97 % of control | [17] 110 % of control and 117 % of control

COc1cc(Cl)ccc1NC(=O)OCc1ccco1
inactive: [8] 111 % of control | [9] 111 % of control | [10] 100 % of control

CCOC(=O)NCC(C)(CCN1CCCC1)c1cccc2ccccc12 (centres undefined)
inactive: [12] 93 % of control | dose: 12.5 mg/kg/injection, schedule: Q04DX003 (ip), vehicle: Klucel (hydroxypropylcellulose) (HPC) 100 % of control | dose: 25.0 mg/kg/injection, schedule: Q01DX009 (ip), vehicle: saline with Tween-80 88 % of control | dose: 25.0 mg/kg/injection, schedule: Q04DX003 (ip), vehicle: Klucel (hydroxypropylcellulose) (HPC) 100 % of control | dose: 50.0 mg/kg/injection, schedule: Q04DX003 (ip), vehicle: Klucel (hydroxypropylcellulose) (HPC) 100 % of control

Cc1ccc(C)c2c(Cl)c3c(C)ccc(C)c3nc12
inactive: [1] 98 % of control | dose: 100.0 mg/kg/injection, schedule: Q04DX003 (ip), vehicle: other 100 % of control | [3] 90 % of control | dose: 200.0 mg/kg/injection, schedule: Q04DX003 (ip), vehicle: other 97 % of control | dose: 400.0 mg/kg/injection, schedule: Q01DX009 (ip), vehicle: Klucel (hydroxypropylcellulose) (HPC) 96 % of control | dose: 400.0 mg/kg/injection, schedule: Q04DX003 (ip), vehicle: other 95 % of control

NOCc1ccc(CON)cc1
inactive: [11] 95 % of control | [18] 97 % of control

CC(=O)Oc1cc(C)[nH]c(=O)c1
inactive: [5] 101 % of control | [20] 105 % of control | [21] 101 % of control

CNS(=O)(=O)c1ccccc1C(=N)c1ccccc1
inactive: [5] 97 % of control | [20] 97 % of control | [21] 100 % of control

COc1ccccc1NC(=O)Oc1ccc(Br)cc1Br
inactive: [5] 95 % of control | [8] 102 % of control and 106 % of control | dose: 100.0 mg/kg/injection, schedule: Q04DX002 (ip), vehicle: saline 105 % of control and 109 % of control | [11] 93 % of control | [20] 101 % of control | [9] 103 % of control and 110 % of control | dose: 200.0 mg/kg/injection, schedule: Q04DX002 (ip), vehicle: saline 105 % of control and 109 % of control | [18] 95 % of control | [21] 123 % of control | [10] 103 % of control and 109 % of control | dose: 400.0 mg/kg/injection, schedule: Q04DX002 (ip), vehicle: saline 107 % of control and 88 % of control | [19] 101 % of control

CN(C)Cc1cc(C23CC4CC(CC(C4)C2)C3)cc(-c2ccccc2)c1O
inactive: dose: 100.0 mg/kg/injection, schedule: Q04DX003 (ip), vehicle: acetone 95 % of control | dose: 200.0 mg/kg/injection, schedule: Q04DX003 (ip), vehicle: acetone 98 % of control | dose: 400.0 mg/kg/injection, schedule: Q04DX003 (ip), vehicle: acetone 90 % of control

Oc1ccc(C2CCCCCC2)cc1
inactive: dose: 12.5 mg/kg/injection, schedule: Q01DX001 (ip), vehicle: carboxymethylcellulose (CMC) 97 % of control | dose: 25.0 mg/kg/injection, schedule: Q01DX001 (ip), vehicle: carboxymethylcellulose (CMC) 103 % of control
